Literature values, collected in patent publication US11414692B2, “Method and device for characterizing the inhibitory capacity of a molecule on a microorganism” (BIOMERIEUX, priority 2014, dated 2022).
Values after ≈ are worked out from the molar mass of the structure shown.

Tested on: E. coli ATCC 25922
Conditions: manual technique, incubation time 18 to 24 h

Row | Compound | MIC concentration recognized by the French government, or "regulatory" MIC [µg/mL]
1 | CCn1cc(C(=O)O)c(=O)c2ccc(C)nc21 [nalidixic acid] | 2 (≈ 8.61 µM)
2 | gentamicin | 0.5
3 | O=C(N[C@H](CO)[C@H](O)c1ccc([N+](=O)[O-])cc1)C(Cl)Cl [chloramphenicol] | 4 (≈ 12.4 µM)
